From patent US20030059788A1, “Genetic markers of toxicity, preparation and uses thereof” (priority 2002, published 2003)
Read-outs that look alike come from different tables or passages of the source. Numbered stars: 1 amine (or outer) side, 2 acyl side, 3 side chain; on linkers, the order of the positions; unused ones are H or OH. Bridge positions count the residues as written; N and C are the ends. Square brackets hold non-standard residues; d marks the D form. Peptide text beside a SMILES is read from it. I, II: the chains in the order shown. Actinocin(9to1) = Cc1c2oc3c(C)ccc(C(=O)[*:1])c3nc-2c(C(=O)[*:2])c(N)c1=O; NMeV = CN[C@H](C(=O)O)C(C)C; Sar = CNCC(=O)O

Tests used:
HepG2 cells [1] = test: cell viability test (MTT), concentration corresponding to an IC80; type: cell-based
Excerpt: (§1) HepG2 cells are then individually treated with different compounds with different levels of toxicity.

HepG2 cells [2] = test: hybridization of probes from treated HepG2 cells on filters with clones from qualitative screening of p53-induced apoptosis (toxicity index); type: cell-based; conditions: HepG2 cells treated at IC80 concentration, p53 apoptosis filter
Excerpt: as §1

[3] = HepG2 cells, exposure time 18 h
[4] = HepG2 cells, exposure time 18 h, read-out: Concentration (calculated by cell viability test MTT, corresponds to an IC80)

Row | SMILES | Concentration (calculated by cell viability test MTT, corresponds to an IC80) (HepG2 cells [1]; [3]) [µg/mL] | IC80 (HepG2 cells [1]; [4]) [nM] | further results
1 | Cc1c2oc3c(C)ccc(C(=O)N[C@@H]4C(=O)N[C@H](C(C)C)C(=O)N5CCC[C@H]5C(=O)N(C)CC(=O)N(C)[C@@H](C(C)C)C(=O)O[C@@H]4C)c3nc-2c(C(=O)N[C@@H]2C(=O)N[C@H](C(C)C)C(=O)N3CCC[C@H]3C(=O)N(C)CC(=O)N(C)[C@@H](C(C)C)C(=O)O[C@@H]2C)c(N)c1=O [Actinomycin D] (I: T[dV]P[Sar][NMeV] / II: T[dV]P[Sar][NMeV]; ester I:1-I:C, II:1-II:C; linker I:N-II:N via Actinocin(9to1)) | 0.02 | – | –
2 | CCCCCCCCCCCCCC(=O)O[C@@H]1[C@@H](C)[C@@]2(O)[C@@H](C=C(CO)C[C@]3(O)C(=O)C(C)=C[C@@H]23)[C@@H]2C(C)(C)[C@]12OC(C)=O [PMA] | 1 | – | –
3 | C[C@@H]1C[C@@H]([C@H](O)CC2CC(=O)NC(=O)C2)C(=O)[C@@H](C)C1 [Cycloheximide] | 5 | – | –
4 | C[C@H]1C[C@H]2[C@@H]3CCC4=CC(=O)C=C[C@]4(C)[C@@]3(Cl)[C@@H](O)C[C@]2(C)[C@@]1(O)C(=O)CO [Beclomethazone] | – | 50 | –
5 | CN[C@@H]1C[C@H]2O[C@@](C)([C@@H]1OC)n1c3ccccc3c3c4c(c5c6ccccc6n2c5c31)C(=O)NC4 [Staurosporine] | – | 50 | –
6 | OO [H2O2] | – | 100000 | –
7 | O=c1[nH]cc(F)c(=O)[nH]1 [5 FU] | – | – | IC80 (HepG2 cells [1]): 10000 nM
8 | O=C(O)Cc1ccccc1Nc1c(Cl)cccc1Cl [Diclofenac] | – | – | splicing events identical to those induced by p53-related toxicity (toxicity index, FIG. 2) (HepG2 cells [2]): generates more splicing events identical to those induced by p53-related toxicity than aspirin
9 | N#CC(C#N)=NNc1ccc(OC(F)(F)F)cc1 [FCCP] | – | – | IC80 (HepG2 cells [1]): 5000 nM
10 | CC(C)[C@@H]1NC(=O)[C@H](C)OC(=O)[C@@H](C(C)C)NC(=O)[C@@H](C(C)C)OC(=O)[C@H](C(C)C)NC(=O)[C@H](C)OC(=O)[C@@H](C(C)C)NC(=O)[C@@H](C(C)C)OC(=O)[C@H](C(C)C)NC(=O)[C@H](C)OC(=O)[C@@H](C(C)C)NC(=O)[C@@H](C(C)C)OC1=O [Valinomycin] | – | 15 | –
